The record followed here is patent publication US20260248863A1, “METHODS AND MATERIALS FOR TREATING GASTROINTESTINAL DISORDERS” (Mayo Foundation for Medical Education and Research, priority 2020, published 2026).

For assay [1], the system named is Caco-2 monolayers. Briefly: Texas red dextran flux across Caco-2 monolayers. It is filed as cell-based. As for the experimental part: (§1) Apical addition of high PA fecal supernatants on Caco-2 monolayers caused a drop in transepithelial resistance (TER) which was not seen with low PA supernatant (FIG. 16A). […] Since pancreatic elastases were found as the most abundant proteases driving the fecal PA, their effects on barrier were tested.

Assay [2] relates to Caco-2 monolayers. Briefly: Transepithelial resistance (TER) drop induced by high PA fecal supernatants on Caco-2 monolayers. It counts as cell-based. As for the experimental part: as §1

On to Trypsin, for which the effect on barrier entry in the assay with Caco-2 monolayers [1] is recorded as “had an effect on barrier”.
Take `CC(C)C[C@H](NC(=O)[C@H]1O[C@@H]1C(=O)O)C(=O)NCCCCN=C(N)N` [E64]: in the assay with Caco-2 monolayers [1] (apical preincubation, 0.1 mM E64, Caco-2 monolayers, FIG. 17B), the “reduction of increased paracellular (Texas red dextran) flux caused by high PA supernatants” value is “not”. The “inhibition of fecal supernatant induced TER drop” value in the assay on Caco-2 monolayers [2] (apical preincubation, 0.1 mM E64, Caco-2 monolayers, FIG. 17A) was “not”.
As to “porcine pancreatic elastase: porcine pancreatic elastase, protease tested for effects on barrier”, the “Texas red dextran flux, 24 hour basolateral concentration” value with Caco-2 monolayers [1] (1 mM, Caco-2 monolayers, control 0.1 μg/mL, n=4/group, p<0.05) came to 5.9 µg/mL.
Consider `CC(C)CC(=O)N1CCN(C(=O)CCCCCN)CC1` [ENMD1068], for which, in the assay with Caco-2 monolayers [2] (FIG. 18, n=5/group, p<0.05), the “effect of high PA fecal supernatant on TER (in words)” value is given as “blocks”. Moreover, the “inhibition of TER drop induced by high PA fecal supernatants” value in the assay with Caco-2 monolayers [2] (preincubation of Caco-2 monolayer, 150 μM) was found to be 45%.
